BigSolDB 2.1

Details: 298.15 K

O=C(O)c1ccc(Cl)c(Cl)c1
Details	solubility (mole fraction)
in 1,4-dioxane	0.0493
in 2-butoxyethanol	0.0399
in 2-ethoxyethanol	0.0445
in 2-isopropoxyethanol	0.0483
in 2-methyl-1-butanol	0.0183
in 2-methyl-1-pentanol	0.0239
in 2-pentanol	0.0248
in 2-propoxyethanol	0.0468
in 3-methoxy-1-butanol	0.0503
in 4-methyl-2-pentanol	0.0255
in MTBE	0.0358
in THF	0.101
in dibutyl ether	0.00969
in diethyl ether	0.0308
in diisopropyl ether	0.0126
in ethanol	0.0173
in ethyl acetate	0.0164
in isobutanol	0.0139
in isopentanol	0.0216
in isopropanol	0.0177
in methyl acetate	0.0119
in methyl butyrate	0.0143
in n-butanol	0.0203
in n-butyl acetate	0.0206
in n-heptanol	0.0251
in n-hexanol	0.0238
in n-octanol	0.0242
in n-pentanol	0.0218
in n-pentyl acetate	0.0216
in n-propanol	0.0185
in n-propyl acetate	0.0176
in sec-butanol	0.019
in tert-butanol	0.0345
